This note sets out measurements from patent publication US20260234157A1, “COMPOUND AND METHOD FOR TARGETED DEGRADATION OF ANDROGEN RECEPTOR” (Gan & Lee Pharmaceuticals Co., Ltd., priority 2023, published 2026).

The target in experiment [1] is T1, AR protein (Homo sapiens, UniProt P10275).
T1 construct: degradation activity of the compounds disclosed in the present disclosure on AR protein in VCaP cells; host or cells: VCaP
T1 sequence (P10275 1-920): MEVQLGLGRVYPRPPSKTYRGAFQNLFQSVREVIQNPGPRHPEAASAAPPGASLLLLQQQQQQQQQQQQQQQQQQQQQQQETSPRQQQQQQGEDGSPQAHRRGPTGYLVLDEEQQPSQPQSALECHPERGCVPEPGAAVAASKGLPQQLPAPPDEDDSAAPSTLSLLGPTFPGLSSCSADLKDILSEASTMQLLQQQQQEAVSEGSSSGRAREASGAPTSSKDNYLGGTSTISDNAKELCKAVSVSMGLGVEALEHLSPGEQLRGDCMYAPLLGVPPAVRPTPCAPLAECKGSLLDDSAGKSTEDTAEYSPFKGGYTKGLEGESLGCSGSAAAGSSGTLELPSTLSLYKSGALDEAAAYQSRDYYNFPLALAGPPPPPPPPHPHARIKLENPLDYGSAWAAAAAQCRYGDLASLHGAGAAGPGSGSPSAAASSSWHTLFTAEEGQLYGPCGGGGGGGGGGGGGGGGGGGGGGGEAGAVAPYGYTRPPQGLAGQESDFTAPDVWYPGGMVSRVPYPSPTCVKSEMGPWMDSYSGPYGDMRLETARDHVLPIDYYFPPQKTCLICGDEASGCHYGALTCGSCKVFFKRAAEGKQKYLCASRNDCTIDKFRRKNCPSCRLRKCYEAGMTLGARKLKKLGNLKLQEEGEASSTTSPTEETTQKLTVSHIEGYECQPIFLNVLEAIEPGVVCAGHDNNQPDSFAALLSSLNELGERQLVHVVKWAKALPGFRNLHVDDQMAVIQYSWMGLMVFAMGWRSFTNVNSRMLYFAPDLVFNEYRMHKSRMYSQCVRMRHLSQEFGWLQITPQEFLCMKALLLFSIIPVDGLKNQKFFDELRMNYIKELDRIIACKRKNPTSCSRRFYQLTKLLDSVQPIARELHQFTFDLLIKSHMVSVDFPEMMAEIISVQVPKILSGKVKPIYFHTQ
As to the kind of experiment: Degradation of AR protein in VCaP cells (Western blot). The settings on record: 8 hours; for inhibition at 0.01 µM: read-out: Degradation rate of the AR protein in VCaP cells, 10 nM (%); for inhibition at 0.1 µM: read-out: Degradation rate of the AR protein in VCaP cells, 100 nM (%). It counts as cell-based. How it is done:
The degradation activity of the compounds disclosed in the present disclosure on AR protein in VCaP cells (cell source: ATCC)
(§1) Corresponding solvent controls were also set and cultured for 8 hours. After 8 hours of cultivation, the culture medium was removed and the cells were washed with PBS. RIPA lysis buffer containing 1% Protease Inhibitor Cocktail was added, and the total protein extract was obtained by lysis and centrifugation. The protein concentration in the extract was detected by BCA method. Protein electrophoresis was performed using SDS-PAGE, followed by transfer of the protein onto a PVDF (Millipore Sigma catalog No. PSRP010R5) membrane at 100V constant voltage for 60 minutes. The PVDF membrane was then placed in a 1×TBST solution with 5% milk and blocked at room temperature for 1 hour. […] The primary antibody solution was discarded and the PVDF membrane was washed three times with 1×TBST for 5 minutes/time. […] The secondary antibody solution was discarded and the PVDF membrane was washed three times with 1×TBST for 5 minutes/time. Western blot imaging was performed by using a dual color infrared laser imaging system (Licor catalog No. Odyssey CLX). Bands were analyzed in grayscale using Image Studio software. For each sample, GAPDH protein bands were detected as internal reference. The degradation rates of the AR protein for the compounds and the positive control sample were calculated based on grayscale of the protein bands.
For orientation: A western blot detects proteins with antibodies after separation by electrophoresis.

In experiment [2] the target is T2, AR protein (Homo sapiens, UniProt P10275, T878A).
T2 construct: degradation activity of the compounds disclosed in the present disclosure on AR protein in LNCaP cells; host or cells: LNCaP FGC
T2 sequence (P10275 1-920 T878A): T1 sequence (P10275 1-920) with T878A
Put plainly: Degradation of AR protein in LNCaP cells (Western blot). The format is cell-based. The settings on record: for inhibition at 0.01 µM: read-out: Degradation rates of the AR protein in LNCaP cells, 10 nM (%); for inhibition at 0.1 µM: read-out: Degradation rates of the AR protein in LNCaP cells, 100 nM (%). How it is done: The degradation activity of the compounds disclosed in the present disclosure on AR protein in LNCaP cells (cell source: ATCC)
as §1

Setting [3] is: LNCaP cells, compound 10 nM, 8 hours, Western blot grayscale, GAPDH internal reference.
Setting [4] is: LNCaP cells, compound 100 nM, 8 hours, Western blot grayscale, GAPDH internal reference.

Molecules are shown by their SMILES. Changes are numbered by the printed parent chain. Read-outs that look alike come from different tables or passages of the source.

Take `COC1(CN2CC3(CCc4cc5c(cc4O3)C(=O)N(C3CCC(=O)NC3=O)C5)C2)CCN(c2ccc(C(=O)N[C@H]3CC[C@H](Oc4ccc(C#N)c(Cl)c4)CC3)nn2)CC1` (some centres unmarked) [Compound 9]: the inhibition at 0.01 µM at AR protein [1] (compound at 10 nM) came to 87%; at AR protein [2] (setting [3]) it was 56%. Also, the figures for the inhibition at 0.1 µM on AR protein [1] (compound at 100 nM) and at AR protein [2] (setting [4]) were 82% and 66%, respectively.

Regarding `N#Cc1ccc(O[C@H]2CC[C@H](NC(=O)c3ccc(N4CCC5(CC4)CC(N4CCC6(CCc7cc8c(cc7O6)C(=O)N(C6CCC(=O)NC6=O)C8=O)CC4)C5)nn3)CC2)cc1Cl` (some centres unmarked) [Compound 31], the inhibition at 0.01 µM on AR protein [1] (compound at 10 nM) is 67%; on AR protein [2] (setting [3]) it was 52%. In addition, the inhibition at 0.1 µM on AR protein [1] (compound at 100 nM) amounted to 70%; at AR protein [2] (setting [4]), 69%.

Turning to `N#Cc1ccc(O[C@H]2CC[C@H](NC(=O)c3cnc(N4CCC5(CC4)COc4c5ccc5c4CN(C4CCC(=O)NC4=O)C5=O)nc3)CC2)cc1Cl` (some centres unmarked) [Compound 201], the inhibition at 0.01 µM was -11% at AR protein [1] (compound at 10 nM) and 6% at AR protein [2] (setting [3]). Moreover, the inhibition at 0.1 µM at AR protein [1] (compound at 100 nM) and on AR protein [2] (setting [4]) was 32% throughout.

For the compound `N#Cc1ccc(O[C@H]2CC[C@H](NC(=O)c3ccc(N4CCC(C#N)(CN5CCC6(CC5)COc5c6ccc6c5CN(C5CCC(=O)NC5=O)C6=O)CC4)nn3)CC2)cc1Cl` (some centres unmarked) [Compound 156], the inhibition at 0.01 µM on AR protein [1] (compound at 10 nM) was determined as 37%; on AR protein [2] (setting [3]) it was 52%. For the same compound, the inhibition at 0.1 µM on AR protein [1] (compound at 100 nM) was 75%; at AR protein [2] (setting [4]), 53%.

For the compound `N#Cc1ccc(O[C@H]2CC[C@H](NC(=O)c3ccc(N4CC5(CCC(N6CCC7(CC6)COc6c7ccc7c6CN(C6CCC(=O)NC6=O)C7=O)CC5)C4)nn3)CC2)cc1Cl` (some centres unmarked) [Compound 168], the inhibition at 0.01 µM was found to be 76% on AR protein [1] (compound at 10 nM) and 70% on AR protein [2] (setting [3]). Further, the inhibition at 0.1 µM on AR protein [1] (compound at 100 nM) stood at 77%; on AR protein [2] (setting [4]), 26%.

As to `N#Cc1ccc(O[C@H]2CC[C@H](NC(=O)c3ccc(N4CC(N5CCC6(CCc7cc8c(cc7O6)CN(C6CCC(=O)NC6=O)C8=O)CC5)C4)nn3)CC2)cc1Cl` (some centres unmarked) [Compound 42], the inhibition at 0.01 µM on AR protein [1] (compound at 10 nM) turned out to be 45%; on AR protein [2] (LNCaP, 8 h) it was 29%. The inhibition at 0.1 µM on AR protein [1] (compound at 100 nM) was found to be 33%; at AR protein [2] (LNCaP, 8 h) it was 49%.

Consider `COc1cc(O[C@H]2CC[C@H](NC(=O)c3ccc(N4CCC(C)(CN5CCC6(CC5)COc5c6ccc6c5C(=O)N(C5CCC(=O)NC5=O)C6=O)CC4)nn3)CC2)ccc1C#N` (some centres unmarked) [Compound 180], for which the inhibition at 0.01 µM amounted to 29% on AR protein [1] (compound at 10 nM) and 12% on AR protein [2] (setting [3]). Besides, the values for the inhibition at 0.1 µM at AR protein [1] (compound at 100 nM) and on AR protein [2] (setting [4]) were 73% and 53%, respectively.

Take `CC1(CN2CCC3(CC2)COc2c3ccc3c2CN(C2CCC(=O)NC2=O)C3=O)CCN(c2ncc(C(=O)N[C@H]3CC[C@H](Oc4ccc(C#N)c(Cl)c4)CC3)cn2)CC1` (some centres unmarked) [Compound 193]: the inhibition at 0.01 µM on AR protein [1] (compound at 10 nM) turned out to be 21%; at AR protein [2] (setting [3]), 18%. Also, the inhibition at 0.1 µM stood at 78% at AR protein [1] (compound at 100 nM) and 31% at AR protein [2] (setting [4]).

As for `N#Cc1ccc(O[C@H]2CC[C@H](NC(=O)c3ccc(N4CCC5(CC4)CC(N4CCC6(CC4)COc4cc7c(cc46)C(=O)N(C4CCC(=O)NC4=O)C7=O)C5)nn3)CC2)cc1Cl` (some centres unmarked) [Compound 47], the figures for the inhibition at 0.01 µM on AR protein [1] (compound at 10 nM) and at AR protein [2] (setting [3]) were 82% and 54%, respectively. For the same compound, the results for the inhibition at 0.1 µM on AR protein [1] (compound at 100 nM) and at AR protein [2] (setting [4]) were 79% and 67%, respectively.

For the compound `N#Cc1ccc(O[C@H]2CC[C@H](NC(=O)c3ccc(N4CCC(N5CCC6(CC5)COc5c6ccc6c5CN(C5CCC(=O)NC5=O)C6=O)CC4)nn3)CC2)cc1Cl` (some centres unmarked) [Compound 169], the inhibition at 0.01 µM at AR protein [1] (compound at 10 nM) was determined as 79%; on AR protein [2] (LNCaP, 8 h), 75%. In addition, the inhibition at 0.1 µM on AR protein [1] (compound at 100 nM) was determined as 82%; on AR protein [2] (LNCaP, 8 h) it was 53%.

Take `N#Cc1ccc(O[C@H]2CC[C@H](NC(=O)c3ccc(N4CCC(CN5CCC6(CC5)Cc5cc7c(cc5O6)C(=O)N(C5CCC(=O)NC5=O)C7=O)CC4)nn3)CC2)cc1Cl` (some centres unmarked) [Compound 78]: the results for the inhibition at 0.01 µM on AR protein [1] (compound at 10 nM) and on AR protein [2] (setting [3]) were 72% and 67%, respectively. Also, the results for the inhibition at 0.1 µM at AR protein [1] (compound at 100 nM) and at AR protein [2] (setting [4]) were 57% and 70%, respectively.

In the case of `N#Cc1ccc(O[C@H]2CC[C@H](NC(=O)c3ccc(N4CCC5(CC4)CC(N4CCC6(CC4)COc4c6ccc6c4CN(C4CCC(=O)NC4=O)C6=O)C5)nn3)CC2)cc1Cl` (some centres unmarked) [Compound 184], the inhibition at 0.01 µM at AR protein [2] (setting [3]) was 79%. Further, at AR protein [2] (setting [4]), the inhibition at 0.1 µM amounted to 41%.

As to `CCOC1(CN2CCC3(CC2)COc2c3ccc3c2CN(C2CCC(=O)NC2=O)C3=O)CCN(c2ccc(C(=O)N[C@H]3CC[C@H](Oc4ccc(C#N)c(Cl)c4)CC3)nn2)CC1` (some centres unmarked) [Compound 155], the inhibition at 0.01 µM at AR protein [1] (compound at 10 nM) was 58%; at AR protein [2] (setting [3]) it was 29%. Moreover, the results for the inhibition at 0.1 µM at AR protein [1] (compound at 100 nM) and on AR protein [2] (setting [4]) were 80% and 1%, respectively.

For `N#Cc1ccc(O[C@H]2CC[C@H](NC(=O)c3ccc(N4CC(N5CCC6(CC5)Cc5cc7c(cc5O6)C(=O)N(C5CCC(=O)NC5=O)C7=O)C4)nn3)CC2)cc1Cl` (some centres unmarked) [Compound 79], the inhibition at 0.01 µM was determined as 36% on AR protein [1] (compound at 10 nM) and 23% at AR protein [2] (LNCaP, 8 h). For the same compound, the inhibition at 0.1 µM at AR protein [1] (compound at 100 nM) stood at 42%; on AR protein [2] (LNCaP, 8 h), 28%.

For the compound `N#Cc1ccc(O[C@H]2CC[C@H](NC(=O)c3ccc(N4CC5(CC(N6CCC7(CC6)COc6c7ccc7c6C(=O)N(C6CCC(=O)NC6=O)C7=O)C5)C4)nn3)CC2)cc1Cl` (some centres unmarked) [Compound 140], at AR protein [1] (compound at 10 nM), the “Degradation rate of the AR protein in VCaP cells, 10 nM (%)” value was −14%. Further, the “Degradation rate of the AR protein in VCaP cells, 100 nM (%)” value at AR protein [1] (compound at 100 nM) was found to be 38%.
